These results are taken from US8927717B1, “Thiochromeno[2,3-c]quinolin-12-one derivatives, preparation method and application thereof” (National Defense Medical Center, priority 2014, dated 2015).

Like-named read-outs stand apart in the source and are kept apart here.

Usually IC50 stands for the midpoint of a concentration-inhibition curve. Usually melting point stands for the temperature, or range, at which the solid turns liquid.

In series [1] the target is T1, TOP I (Topoisomerase I) (Homo sapiens, UniProt P11387).
T1 construct: purchased TopoGEN TG2005H
T1 sequence (P11387 1-765): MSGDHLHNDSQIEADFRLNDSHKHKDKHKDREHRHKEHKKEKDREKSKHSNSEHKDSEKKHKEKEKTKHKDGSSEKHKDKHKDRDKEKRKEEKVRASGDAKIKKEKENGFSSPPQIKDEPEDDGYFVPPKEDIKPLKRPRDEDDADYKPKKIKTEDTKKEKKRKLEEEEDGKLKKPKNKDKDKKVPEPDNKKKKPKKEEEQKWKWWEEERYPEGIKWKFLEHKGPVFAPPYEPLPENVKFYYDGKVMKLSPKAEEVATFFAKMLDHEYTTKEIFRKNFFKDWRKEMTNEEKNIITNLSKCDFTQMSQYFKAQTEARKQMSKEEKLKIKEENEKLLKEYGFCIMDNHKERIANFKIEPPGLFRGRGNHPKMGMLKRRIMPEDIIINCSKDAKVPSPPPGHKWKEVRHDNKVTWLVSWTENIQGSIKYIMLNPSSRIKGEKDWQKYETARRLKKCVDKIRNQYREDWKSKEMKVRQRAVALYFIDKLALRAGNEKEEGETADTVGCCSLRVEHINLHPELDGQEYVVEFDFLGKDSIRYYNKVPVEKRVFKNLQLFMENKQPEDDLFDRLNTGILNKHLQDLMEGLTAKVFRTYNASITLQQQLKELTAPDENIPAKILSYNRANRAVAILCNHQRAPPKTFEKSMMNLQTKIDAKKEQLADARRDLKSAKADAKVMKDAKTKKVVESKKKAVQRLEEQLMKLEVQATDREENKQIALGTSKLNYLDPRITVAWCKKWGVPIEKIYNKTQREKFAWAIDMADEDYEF
Briefly: TOP I mediated supercoiled DNA relaxation assay. It counts as biochemical. The conditions noted are these: five different concentrations; TopoGEN TG2005H, TG-2000H-1.

Series [2] addresses T1, TOP I (Topoisomerase I). Put plainly: TOP I mediated supercoiled DNA relaxation assay. The class given is biochemical. The conditions noted are these: primary assay at 25 and/or 50 μM. How it is done:
According to the cell cytotoxicity, compounds 5, 7, 8, 16, 19, N2, N7, N8, N9, N14-N19, and N25 were also selected for primary TOP I and II activities assays at 25 and/or 50 μM (FIG. 2-4).

For series [3], the target named is T2, TOP II (Topoisomerase II) (Homo sapiens, UniProt P11388).
T2 construct: purchased TopoGEN TG-2000H-1
T2 sequence (P11388 whole entry): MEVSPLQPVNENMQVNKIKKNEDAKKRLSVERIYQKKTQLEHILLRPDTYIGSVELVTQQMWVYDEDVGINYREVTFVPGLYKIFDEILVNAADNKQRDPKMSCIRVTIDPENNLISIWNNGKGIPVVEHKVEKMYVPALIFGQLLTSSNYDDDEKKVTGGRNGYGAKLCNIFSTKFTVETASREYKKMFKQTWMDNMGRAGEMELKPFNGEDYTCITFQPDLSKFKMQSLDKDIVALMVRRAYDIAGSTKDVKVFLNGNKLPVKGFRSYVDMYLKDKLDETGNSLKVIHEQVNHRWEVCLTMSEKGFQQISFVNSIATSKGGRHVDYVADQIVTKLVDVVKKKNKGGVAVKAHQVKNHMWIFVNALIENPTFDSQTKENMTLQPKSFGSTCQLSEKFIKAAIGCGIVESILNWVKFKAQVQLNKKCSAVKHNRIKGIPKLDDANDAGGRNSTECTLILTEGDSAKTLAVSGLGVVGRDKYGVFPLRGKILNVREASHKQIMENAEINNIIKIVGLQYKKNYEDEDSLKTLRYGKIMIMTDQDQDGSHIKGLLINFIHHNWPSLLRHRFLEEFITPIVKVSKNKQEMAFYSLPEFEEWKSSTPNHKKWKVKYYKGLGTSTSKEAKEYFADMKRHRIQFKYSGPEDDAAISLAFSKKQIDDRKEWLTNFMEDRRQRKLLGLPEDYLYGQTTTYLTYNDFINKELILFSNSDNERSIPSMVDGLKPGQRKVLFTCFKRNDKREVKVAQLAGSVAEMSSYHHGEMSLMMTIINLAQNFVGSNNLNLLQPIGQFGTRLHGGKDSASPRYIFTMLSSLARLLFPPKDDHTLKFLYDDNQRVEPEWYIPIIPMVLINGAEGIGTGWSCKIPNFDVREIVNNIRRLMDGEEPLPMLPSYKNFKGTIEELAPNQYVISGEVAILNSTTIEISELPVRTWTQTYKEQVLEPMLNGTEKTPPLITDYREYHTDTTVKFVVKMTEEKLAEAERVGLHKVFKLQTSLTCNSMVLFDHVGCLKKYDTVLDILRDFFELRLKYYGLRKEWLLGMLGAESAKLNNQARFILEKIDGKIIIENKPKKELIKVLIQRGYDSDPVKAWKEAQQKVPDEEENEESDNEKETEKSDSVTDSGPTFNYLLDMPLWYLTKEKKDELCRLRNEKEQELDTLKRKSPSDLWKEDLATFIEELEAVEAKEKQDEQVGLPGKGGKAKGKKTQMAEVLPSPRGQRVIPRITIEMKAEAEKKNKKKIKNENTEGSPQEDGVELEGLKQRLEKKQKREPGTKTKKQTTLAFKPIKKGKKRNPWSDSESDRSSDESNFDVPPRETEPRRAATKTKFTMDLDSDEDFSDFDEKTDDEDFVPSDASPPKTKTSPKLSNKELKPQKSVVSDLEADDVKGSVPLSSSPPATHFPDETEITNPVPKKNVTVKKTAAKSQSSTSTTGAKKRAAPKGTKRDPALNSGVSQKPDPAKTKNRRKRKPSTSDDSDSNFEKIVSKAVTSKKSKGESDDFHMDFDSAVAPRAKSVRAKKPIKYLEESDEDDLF
Briefly: TOP II-catalyzed relaxation of plasmid DNA assay. The class given is biochemical. The conditions noted are these: for IC50: five different concentrations, TopoGEN TG2005H, TG-2000H-1, read-out: IC50 value, TOP II mediated supercoiled DNA relaxation; for inhibitory effect in TOP II relaxation assay compared with VP-16: primary assay at 25 and/or 50 μM. How it is done:
We also performed TOP II-catalyzed relaxation of plasmid DNA assays (FIG. 5-7) to evaluate if compounds could inhibit TOP II. […] The IC50 value of compounds 7, N7, N8, N14, N15, N18, and N19 were about 10, 10, 1, 10, 5, 1, and 1 μM, respectively (detect by TopoGEN TG2005H, TG-2000H-1).

The test system of series [4] is PC-3 cell line. Put plainly: MTT assay for cell cytotoxicity. To be noted: PC-3 cells, 72 h, at least three independent experiments, read-out: MTT assay (IC50 ± SD) PC-3. The class given is cell-based, human. The method, then:
(§1) All of synthesis compounds were evaluated cell cytotoxicity by using MTT colorimetric assay on PC-3 and DU-145 cell lines. DU-145 and PC-3 are human hormone-refractory (androgen-independent) prostatic cancer cell lines from American Type Culture Collection (HTB-81™, ATCC, Rockville, Md.)^125 and Bioresource Collection and Research Center (60122, BCRC, Taiwan)^126, respectively. Two of the “classical” cell lines were cultivated in RPMI-1640 medium supplemented with 5% fetal bovine serum (v/v), 100 U/mL penicillin, and […] streptomycin. Approximately 2×10^3 cells were seeded into each well of a 96-well plate and incubated in 5% CO2 at 37° C. for 24 h. To evaluate the in vitro cytotoxicity, all the synthetic compounds were dissolved in DMSO, prepared immediately before the experiments and diluted into the complete medium before being added to each well of a 96-well plate. Each compound was then added to the culture medium for designated various concentrations (0.15, 0.5, 1.5, 5, 15 μM). After 72 h, an amount of 100 μL of MTT (1 mg/mL) was added to each well, and the samples were incubated at 37° C. for 4 h. After removing the MTT solution, 100 μL of DMSO was added to each well and incubated at 37° C. for another 20 mins. The absorbency at 560 nm was measured by using an ELISA reader.
(§2) Results are expressed as mean values of at least three independent experiments. The IC50 values of testing compounds were described in Table 1.
For orientation: Tetrazolium dyes change colour on reduction, which living cells bring about.

The test system of series [5] is DU-145 cell line. Briefly: MTT assay for cell cytotoxicity. The conditions noted are these: DU-145 cells; 72 h; at least three independent experiments; read-out: MTT assay (IC50 ± SD) DU-145. It counts as cell-based, human. The method, then:
as §1, §2

`O=c1c2cc(Cl)ccc2sc2c(N3CCNCC3)nc3ccccc3c12` [Compound 7, 10-Chloro-6-(piperazin-1-yl)-12H-thiochromeno[2,3-c]quinolin-12-one]: the melting point lay within 211 to 213 °C. In series [1], this molecule had an IC50 of around 10 µM. Also, the “inhibitory effect in TOP I activity assay compared with CPT” value (from here on “inhibitory effect … compared with CPT”) in series [2] is given as “more potent inhibitory effects than CPT”. In series [3], the IC50 was around 10 µM and the “inhibitory effect in TOP II relaxation assay compared with VP-16” value (from here on “inhibitory effect … compared with VP-16”) is “more potent inhibitory effects than the positive agent VP-16”.

Consider `O=c1c2cc(Cl)ccc2sc2c(NCCCO)nc3ccccc3c12` [Compound N10, 10-Chloro-6-(3-propanolamino)-12H-thiochromeno[2,3-c]quinolin-12-one], for which the IC50 in series [4] amounted to 6.31 ± 4.11 µM; in series [5], 5.94 ± 2.03 µM.

For the molecule `O=c1c2cc(Cl)ccc2sc2c(NCCCCCO)nc3ccccc3c12` [Compound N11, 10-Chloro-6-(5-pentanolamino)-12H-thiochromeno[2,3-c]quinolin-12-one], the IC50 in series [4] turned out to be 8.38 ± 3.39 µM; in series [5], 4.95 ± 0.58 µM.

With `O=c1c2cc(Cl)ccc2sc2c(NCCNCCO)nc3ccccc3c12` [Compound N15, 10-Chloro-6-((2-((2-hydroxyethyl)amino)ethyl)amino)-12H-thiochromeno[2,3-c]quinolin-12-one], the melting point lay in the range of 141 to 143 °C. In series [1], this molecule came in with a half-inhibitory concentration (IC50) of around 5 µM. For the same molecule, the “inhibitory effect … compared with CPT” value in series [2] is given as “more potent inhibitory effects than CPT”. Further, in series [3], the concentration for half-maximal inhibition (IC50) was around 5 µM and the “inhibitory effect … compared with VP-16” value was “more potent inhibitory effects than the positive agent VP-16”.

For the molecule `CCN(CC)CCCNc1nc2ccccc2c2c(=O)c3cc(Cl)ccc3sc12` [Compound N18, 10-Chloro-6-((3-(diethylamino)propyl)amino)-12H-thiochromeno[2,3-c]quinolin-12-one], the melting point fell in the range of 142 to 143 °C. The molecule further yielded an IC50 in series [1] of around 25 µM. Besides, the “inhibitory effect … compared with CPT” value in series [2] was “more potent inhibitory effects than CPT”. Moreover, in series [3], the IC50 is around 1 µM and the “inhibitory effect … compared with VP-16” value is recorded as “more potent inhibitory effects than the positive agent VP-16”.

As for `Nc1ccc(CCNc2nc3ccccc3c3c(=O)c4cc(Cl)ccc4sc23)cc1` [Compound N32, 6-((4-Aminophenethyl)amino)-10-chloro-12H-thiochromeno[2,3c]quinolin-12-one], the IC50 in series [4] was determined as 10.1 ± 0.94 µM; in series [5], 13.6 ± 1.39 µM.

For the molecule `COc1cc([C@@H]2c3cc4c(cc3[C@@H](O[C@@H]3O[C@@H]5CO[C@@H](C)O[C@H]5[C@H](O)[C@H]3O)[C@H]3COC(=O)[C@H]23)OCO4)cc(OC)c1O` [Etoposide (VP-16), Etoposide, reference compound], the IC50 in series [4] (Homo sapiens) was determined as 4.33 ± 0.86 µM.
